Read-outs that look alike come from different tables or passages of the source.
Experiment: Levels of PCB 95 and its hydroxylated metabolites in adipose, blood, brain and liver 24 h after a single oral dose (GC-MS/MS)
Type: in vivo, mice
Conditions: single oral PCB 95 1.0 mg/kg, mean ± SD, 1 mg/kg; for concentration at 24 h: mouse, po
Experimental: Adult male and female wild-type (WT) C57BL/6 mice, KO, and KI mice (4 months old) were exposed to racemic PCB 95. Mice were randomly assigned to exposure groups and received a single oral dose of PCB 95 (1.0 mg/kg) in stripped corn oil (10 mL/kg; lot# A0395699; cat# 801-03-7; Fisher Scientific) via gavage (5–7 mice per group). Control animals received corn oil alone (1–3 mice per group) to assess the potential background contamination with PCB 95. Animals were euthanized 24 h after PCB 95 exposure. Blood was collected from the heart and placed in pre-weighed glass vials with 80 μL of ethylenediaminetetraacetic acid solution (EDTA, 7.5%, w/w). The amount of blood in each vial was determined by weight prior to sample extraction. Adipose, brain, and liver tissues were excised from each animal and individually wrapped in aluminum foil. Samples were stored at −80 °C in separate plastic bags and shipped on dry ice to the University of Iowa for analysis.
PCB 95 and its hydroxylated metabolites were extracted from adipose (0.06 ± 0.01 g), brain (0.19 ± 0.03 g) and liver tissues (0.49 ± 0.07 g) by pressurized liquid extraction (PLE) with a Dionex ASE200 system (Dionex, Sunnyvale, CA, USA).[45] Tissues were homogenized with 2 g of pre-cleaned diatomaceous earth (Thermo Fisher Scientific, Pittsburgh, PA, USA) and placed in extraction cells loaded with 10 g of pre-extracted Florisil (60–100 mesh, Fisher Scientific, Pittsburgh, PA, USA). Tissue samples were then spiked with recovery standards [50 ng of PCB 117 in 50 μL of isooctane and 50 ng of 4′-159 (2′,3,3′,5,5′,6′-hexachlorobiphenyl-4-ol) in 50 μL of methanol]. For ongoing precision recovery (OPR) samples; recovery standard, internal standard, PCB 95, and its metabolites (50 ng each) were spiked to the method blank (DE only) and tissues from control animals. Cells were extracted with hexane–dichloromethane–methanol (48:43:9, v/v/v) at 100 °C and 1500 psi (10 MPa), with preheat equilibration for 6 min, 60% of cell flush volume, and 1 static cycle of 5 min. The extracts were concentrated to approximately 1 mL with a TurboVap II (Biotage, LLC, NC, USA) and transferred to new glass tubes with 1 mL of hexane. The solvent was evaporated to near dryness under a gentle stream of nitrogen, and extracts were redissolved in 1 mL of hexane.
PCB 95 and its hydroxylated metabolites were extracted from whole blood (0.45 ± 0.13 g) using a published liquid–liquid extraction procedure.[29] Briefly, blood samples were thawed, and 3 mL of aqueous 1% KCl solution was added to each sample. Recovery standards (50 ng of PCB 117 in 50 μL of isooctane and 50 ng of 4′-159 in 50 μL of methanol) were spiked to all samples, including OPR samples, before extraction. Subsequently, 1 mL of 6 M HCl, 5 mL of 2-propanol, and 5 mL of 1:1 hexane–MTBE mixture (v/v) were added to the blood samples. The samples were inverted for 5 min and centrifuged at 1690g for 5 min to facilitate the phase separation. Next, the organic phases were transferred to new glass tubes, and the aqueous phases were re-extracted with 3 mL of hexane. Next, three mL of aqueous 1% KCl were added to the combined organic extracts, and samples were inverted and centrifuged as described above. The organic phase was transferred to a new tube, and the aqueous phase was re-extracted with 3 mL of hexane. The combined organic extracts were evaporated to near dryness using a Savant SpeedVac SPD210 (Thermo Scientific, Waltham, MA, US), and each sample was reconstituted with 0.5 mL of hexane.
Five drops of methanol and 0.5 mL of diazomethane (CH2N2; about 0.1 mmol) in diethyl ether were added to the tissue or blood extracts to derivatize the OH-PCBs.[45] Diazomethane rapidly converts the phenolic hydroxyl groups of OH-PCBs to methoxy groups (i.e., −OH → −OCH3). All samples were stored at 4 °C for approximately 16 h. Excess diazomethane evaporated under a gentle stream of nitrogen in a fume hood, followed by adding 0.5 mL of hexane. […]

[1] = female, C57BL/6 (wild-type), adipose, FWT, female wildtype mice, read-out: Levels in adipose
[2] = female, C57BL/6 (wild-type), brain, FWT, female wildtype mice, read-out: Levels in brain
[3] = female, C57BL/6 (wild-type), liver, FWT, female wildtype mice, read-out: Levels in liver
[4] = female, C57BL/6 (wild-type), whole blood, FWT, female wildtype mice, read-out: Levels in blood
[5] = female, CYP2A6-humanized (KI), adipose, FKI, female CYP2A6-humanized mice, read-out: Levels in adipose
[6] = female, CYP2A6-humanized (KI), liver, FKI, female CYP2A6-humanized mice, read-out: Levels in liver
[7] = female, CYP2A6-humanized (KI), whole blood, FKI, female CYP2A6-humanized mice, read-out: Levels in blood
[8] = female, Cyp2abfgs-null (KO), adipose, FKO, female Cyp2abfgs-null mice, read-out: Levels in adipose
[9] = female, Cyp2abfgs-null (KO), liver, FKO, female Cyp2abfgs-null mice, read-out: Levels in liver
[10] = female, Cyp2abfgs-null (KO), whole blood, FKO, female Cyp2abfgs-null mice, read-out: Levels in blood
[11] = male, C57BL/6 (wild-type), adipose, MWT, male wildtype mice, read-out: Levels in adipose
[12] = male, C57BL/6 (wild-type), liver, MWT, male wildtype mice, read-out: Levels in liver
[13] = male, C57BL/6 (wild-type), whole blood, MWT, male wildtype mice, read-out: Levels in blood
[14] = male, CYP2A6-humanized (KI), adipose, MKI, male CYP2A6-humanized mice, read-out: Levels in adipose
[15] = male, CYP2A6-humanized (KI), liver, MKI, male CYP2A6-humanized mice, read-out: Levels in liver
[16] = male, CYP2A6-humanized (KI), whole blood, MKI, male CYP2A6-humanized mice, read-out: Levels in blood
[17] = male, Cyp2abfgs-null (KO), adipose, MKO, male Cyp2abfgs-null mice, read-out: Levels in adipose
[18] = male, Cyp2abfgs-null (KO), liver, MKO, male Cyp2abfgs-null mice, read-out: Levels in liver
[19] = male, Cyp2abfgs-null (KO), whole blood, MKO, male Cyp2abfgs-null mice, read-out: Levels in blood

Row | SMILES | concentration at 24 h [1] | concentration at 24 h [2] | concentration at 24 h [3] | concentration at 24 h [4] | concentration at 24 h [5] | concentration at 24 h [6] | concentration at 24 h [7] | concentration at 24 h [8] | concentration at 24 h [9] | concentration at 24 h [10] | concentration at 24 h [11] | concentration at 24 h [12] | concentration at 24 h [13] | concentration at 24 h [14] | concentration at 24 h [15] | concentration at 24 h [16] | concentration at 24 h [17] | concentration at 24 h [18] | concentration at 24 h [19] | also measured
1 | Oc1cc(Cl)c(-c2c(Cl)ccc(Cl)c2Cl)cc1Cl [4'-95] | 1.4 ± 0.6 ng/g | 0.3 ng/g | 3.7 ± 1.8 ng/g | 2.2 ± 1 ng/g | 1.1 ± 0.3 ng/g | 4.5 ± 2.6 ng/g | 3.4 ± 2.5 ng/g | 1.5 ± 0.4 ng/g | 8.5 ± 3.9 ng/g | 2.2 ± 1.2 ng/g | 2.1 ± 0.8 ng/g | 5.7 ± 2.8 ng/g | 3.5 ± 1.1 ng/g | 1.1 ± 0.2 ng/g | 3.8 ± 2.1 ng/g | 1.3 ± 0.7 ng/g | 2.5 ± 1.7 ng/g | 7.7 ± 3.6 ng/g | 2.8 ± 0.9 ng/g | Levels in liver (FKO, female Cyp2abfgs-null mice): 8.5 ng/g tissue; concentration at 24 h (male, Cyp2abfgs-null (KO), brain, MKO, male Cyp2abfgs-null mice, read-out: Levels in brain): 0.2 ng/g
2 | Oc1cc(Cl)c(Cl)c(-c2cc(Cl)ccc2Cl)c1Cl [5-95, 2,2',3,5',6-pentachlorobiphenyl-5-ol] | 1.3 ± 1.1 ng/g | 0.25 ± 0.02 ng/g | 3.8 ± 1.6 ng/g | 0.9 ± 0.6 ng/g | 1.1 ± 0.4 ng/g | 5.5 ± 3.1 ng/g | 1.9 ± 1.6 ng/g | 1 ± 0.4 ng/g | 6.2 ± 1.1 ng/g | 0.7 ± 0.3 ng/g | 1.8 ± 1 ng/g | 3.3 ± 1.6 ng/g | 1.1 ± 0.3 ng/g | 0.8 ± 0.5 ng/g | 3.3 ± 2.1 ng/g | 0.6 ± 0.3 ng/g | 3.5 ± 4.8 ng/g | 3.7 ± 1.6 ng/g | 0.7 ± 0.3 ng/g | –
3 | Oc1cc(Cl)c(-c2cc(Cl)ccc2Cl)c(Cl)c1Cl [4-95, 2,2',3,5',6-pentachlorobiphenyl-4-ol] | 0.4 ± 0.1 ng/g | – | 1 ± 0.6 ng/g | 1.5 ± 0.5 ng/g | – | 0.4 ± 0.1 ng/g | 1 ± 0.8 ng/g | – | 0.4 ± 0.3 ng/g | 0.4 ± 0.3 ng/g | 0.5 ± 0.3 ng/g | 2 ± 0.8 ng/g | 3.2 ± 1.1 ng/g | 0.3 ng/g | 0.8 ± 0.5 ng/g | 1.1 ± 0.6 ng/g | 0.4 ± 0.1 ng/g | 1.1 ± 0.9 ng/g | 1.5 ± 0.8 ng/g | Levels in liver (FKI, female CYP2A6-humanized mice): 0.4 ng/g tissue
4 | Oc1c(O)c(Cl)c(-c2cc(Cl)ccc2Cl)c(Cl)c1Cl [4,5-95, 2,2',3,5',6-pentachlorobiphenyl-4,5-diol] | 0.9 ± 0.2 ng/g | – | 2.2 ± 0.9 ng/g | 5.2 ± 1.9 ng/g | 1 ± 0.6 ng/g | 1.7 ± 0.3 ng/g | 5.2 ± 4.8 ng/g | 1.6 ng/g | 1.2 ± 0.7 ng/g | 1.4 ± 0.7 ng/g | 0.9 ± 0.2 ng/g | 3.4 ± 1.2 ng/g | 9.1 ± 2.6 ng/g | 0.7 ± 0.2 ng/g | 1.7 ± 0.8 ng/g | 3.6 ± 1.3 ng/g | 1.9 ± 0.8 ng/g | 2.8 ± 1.6 ng/g | 5.3 ± 3.8 ng/g | –
5 | Oc1c(Cl)cc(Cl)c(-c2cc(Cl)ccc2Cl)c1Cl [3-103, 2,2',4,5',6-pentachlorobiphenyl-3-ol] | 0.7 ng/g | – | 1.2 ± 0.4 ng/g | 1 ± 0.5 ng/g | – | 1 ± 0.4 ng/g | 1.1 ± 1.2 ng/g | – | 1.8 ± 0.4 ng/g | 0.8 ± 0.3 ng/g | – | 0.7 ± 0.3 ng/g | 0.6 ± 0.2 ng/g | – | 0.6 ± 0.2 ng/g | 0.4 ± 0.1 ng/g | 1.5 ± 0.7 ng/g | 1 ± 0.4 ng/g | 0.5 ± 0.1 ng/g | –

— PMC10445290, “Enantiomeric Fractions Reveal Differences in the Atropselective Disposition of 2,2′,3,5′,6-Pentachlorobiphenyl (PCB 95) in Wildtype, Cyp2abfgs-Null, and CYP2A6-Humanized Mice” (Chemical Research in Toxicology, 2023)
